# Positions count from the first letter of the chain named. “And” between values parts separate entries of the source, which are not always exact repeats. Equal values may be shown once.
# Assays:
# Assay in all cases: in vitro [14C] acetylation assay of purified COX2
# Assay type in all cases: biochemical
# Settings in all cases: replicates, listed as C14 N-AS
# [1] = target: T1, COX2 N181A (Homo sapiens, UniProt P35354, N181A)
# T1 construct: His (N); made in house
# T1 sequence (P35354 18-604 N181A): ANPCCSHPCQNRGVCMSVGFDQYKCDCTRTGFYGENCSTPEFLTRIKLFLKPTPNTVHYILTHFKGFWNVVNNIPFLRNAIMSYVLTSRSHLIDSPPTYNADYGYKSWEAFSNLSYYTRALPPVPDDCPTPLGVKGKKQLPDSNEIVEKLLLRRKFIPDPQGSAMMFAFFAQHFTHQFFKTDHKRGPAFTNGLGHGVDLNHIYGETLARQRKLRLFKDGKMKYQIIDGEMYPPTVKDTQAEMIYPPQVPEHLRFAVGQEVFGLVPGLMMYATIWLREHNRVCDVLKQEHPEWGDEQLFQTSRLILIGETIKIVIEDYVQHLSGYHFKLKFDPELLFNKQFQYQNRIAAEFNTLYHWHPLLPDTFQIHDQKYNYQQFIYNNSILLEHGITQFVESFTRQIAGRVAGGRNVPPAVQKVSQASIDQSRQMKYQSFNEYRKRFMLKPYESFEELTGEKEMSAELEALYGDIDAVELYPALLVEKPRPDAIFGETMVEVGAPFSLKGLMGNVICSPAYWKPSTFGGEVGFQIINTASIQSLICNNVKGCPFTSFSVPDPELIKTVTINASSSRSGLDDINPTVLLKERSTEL
# Text: (§1) Single point mutations in SphK1 (R56A, R57A, R24A, R185A, D178A, and F192A) and COX2 (S565A, N181A, T564A, and S567A) were generated using the In-Fusion Cloning Kits (Clontech) and ORF cDNA expression plasmids of human SphK1 and COX2 gene (Sino Biological Inc, HG15679-NH and HG12036-NH), according to the manufacturer’s instructions. The forward and reverse primers described in Supplementary Table 4. The SphK1 WT, SphK1 mutants, COX2 WT, and COX2 mutant plasmids were transformed in the One shot TOP 10 competent cell (Invitrogen). The bacteria were grown in Luria-Bertani (LB, Invitrogen) plates supplemented with 50 μg ml^−1 kanamycin (Sigma-Aldrich) at 37 °C. The bacterial cell pellets were resuspended in lysis buffer containing 20 mM sodium phosphate (GE Healthcare), 500 mM NaCl (GE Healthcare), 20 mM imidazole (pH 7.4) (GE Healthcare), 0.2 mg ml^−1 lysozyme (Sigma-Aldrich), 20 μg ml^−1 DNase I (Roche), 1 mM MgCl2 (Sigma-Aldrich), and 1 mM PMSF (Sigma-Aldrich) before being lysed by sonication and clarified by centrifugation at 15,493×g for 10 min. Proteins were purified from the soluble fraction using His-Spin Trap columns (GE Healthcare) and the binding and acetylation assays were performed.
# (§2) Acetylation assays were performed according to previously described procedures with minor modifications. […] To confirm the N-AS-mediated COX2 acetylation, 10 μg COX2 (WT or mutants) was used incubated with [^14C] N-AS (2 μCi, ARC UK Ltd, ARC-1024) at 37 °C for 2 h. [^14C] aspirin (2 μCi, ARC UK Ltd, ARC-0473) was conducted as the positive control. The reactions were terminated by placing the reaction tubes in ice for 5 min. To evaluate in vivo neuronal and microglial COX2 acetylation, 10 μCi [^14C] N-AS was orally administrated to 9-months-old WT and APP/PS1 mice. After 1 h, neuron and microglia were isolated and sonicated in culture media. […] Acetylated COX2 proteins bound to the beads were analyzed using a Tri-Carb 3110TR liquid scintillation counter (Perkin-Elmer).
# [2] = target: T2, COX2 S567A (Homo sapiens, UniProt P35354, S567A)
# T2 construct: His (N); made in house
# T2 sequence (P35354 18-604 S567A): T1 sequence (P35354 18-604 N181A) with A164N, S550A
# Text: as §1, §2
# [3] = target: T3, COX2 S565A (Homo sapiens, UniProt P35354, S565A)
# T3 construct: His (N); made in house
# T3 sequence (P35354 18-604 S565A): T1 sequence (P35354 18-604 N181A) with A164N, S548A
# Text: as §1, §2
structure (smiles),measurement,setting,value
"CCCCCCCCCCCCC/C=C/[C@@H](O)[C@H](CO)NC(C)=O [N-AS, N-((2S,3R,E)-1,3-Dihydroxyoctadec-4-en-2-yl)acetamide]","C14 radioactivity of COX2, acetylation assay (Fig 1h)",[1],141977 and 143404 and 142984 and 143554 and 143318 and 142968
same,"C14 radioactivity of COX2, acetylation assay (Fig 1h)",[2],185354 and 188203 and 187860 and 187573 and 187463 and 187847
same,"C14 radioactivity of COX2, acetylation assay (Fig 1h)",[3],117550 and 118051 and 117876 and 111509 and 116124 and 117620

# From PMC7217877, “N-AS-triggered SPMs are direct regulators of microglia in a model of Alzheimer’s disease” (Nature Communications, 2020)
